These results are taken from ChEMBL document CHEMBL3616450, “Synthesis of oxygenated oleanolic and ursolic acid derivatives with anti-inflammatory properties” (Bioorg Med Chem Lett, 2015).

Common to all, as to format: functional, organism-based
For test [1], the system named is Mus musculus. As to the kind of experiment: Antiinflammatory activity in […] mouse assessed as inhibition of TPA-induced IL-1beta mRNA expression in epidermis at 2 umol administered topically 30 mins prior to TPA challenge for twice weekly over 2 weeks measured 6 hrs post last TPA challenge by qRT-PCR analysis.
Test [2] has as its system Mus musculus. Put plainly: Antiinflammatory activity in […] mouse assessed as inhibition of TPA-induced IL-23 mRNA expression in epidermis at 2 umol administered topically 30 mins prior to TPA challenge for twice weekly over 2 weeks measured 6 hrs post last TPA challenge by qRT-PCR analysis.
Test [3] relates to Mus musculus. Put plainly: Antiinflammatory activity in […] mouse assessed as inhibition of TPA-induced IL-1alpha mRNA expression in epidermis at 2 umol administered topically 30 mins prior to TPA challenge for twice weekly over 2 weeks measured 6 hrs post last TPA challenge by qRT-PCR analysis.
In test [4] the test system is Mus musculus. As to the kind of experiment: Antiinflammatory activity in […] mouse assessed as inhibition of TPA-induced IL-6 mRNA expression in epidermis at 2 umol administered topically 30 mins prior to TPA challenge for twice weekly over 2 weeks measured 6 hrs post last TPA challenge by qRT-PCR analysis.

Calls of active or inactive are those of the source. The calls are words filed in the database; no cut-off is given here.

In the case of `C[C@H]1[C@H](C)CC[C@]2(C(=O)O)CC[C@]3(C)C(=CC[C@@H]4[C@@]5(C)C[C@@H](O)[C@@H](O)C(C)(C)[C@@H]5CC[C@]43C)[C@H]12`, the inhibition result in the test with Mus musculus [1], in the test with Mus musculus [2], in the test on Mus musculus [3] and in the test with Mus musculus [4] was “Active” each time.

Take `C[C@H]1[C@H](C)CC[C@]2(C(=O)O)CC[C@]3(C)C(=CC[C@@H]4[C@@]5(C)CC[C@H](O)C(C)(C)[C@@H]5CC[C@]43C)[C@H]12`: the inhibition result in the test on Mus musculus [1], in the test with Mus musculus [2], in the test on Mus musculus [3] and with Mus musculus [4] was “inactive” each time.

With `C[C@H]1[C@H](C)CC[C@]2(C(=O)O)CC[C@]3(C)C(=CC[C@@H]4[C@@]5(C)C[C@@H](O)[C@H](O)C(C)(C)[C@@H]5CC[C@]43C)[C@H]12`, the inhibition entry in the test on Mus musculus [1], in the test with Mus musculus [2], with Mus musculus [3] and in the test on Mus musculus [4] was “Active” each time.

Turning to `CC1(C)CC[C@]2(C(=O)O)CC[C@]3(C)C(=CC[C@@H]4[C@@]5(C)C[C@@H](O)[C@@H](O)C(C)(C)[C@@H]5CC[C@]43C)[C@@H]2C1`, the inhibition entry in the test with Mus musculus [1], in the test on Mus musculus [2], with Mus musculus [3] and with Mus musculus [4] was “inactive” in each case.

On to `CC1(C)CC[C@]2(C(=O)O)CC[C@]3(C)C(=CC[C@@H]4[C@@]5(C)C[C@@H](O)[C@H](O)C(C)(C)[C@@H]5CC[C@]43C)[C@@H]2C1`, for which the inhibition result in the test with Mus musculus [1], with Mus musculus [2], in the test with Mus musculus [3] and in the test with Mus musculus [4] was “Active” throughout.

`CC1(C)CC[C@]2(C(=O)O)CC[C@]3(C)C(=CC[C@@H]4[C@@]5(C)CC[C@H](O)C(C)(C)[C@@H]5CC[C@]43C)[C@@H]2C1`: the inhibition result in the test with Mus musculus [1], with Mus musculus [2], in the test with Mus musculus [3] and in the test with Mus musculus [4] was “inactive” each time.
